Data from patent publication US10207006B2, “Oligosaccharide conjugates and methods of use” (priority 2013, dated 2019).

Assays:
[1] = system: anti-M monoclonal antibody BM40; assay type: binding
[2] = system: anti-A and anti-M rabbit hyperimmunised and absorbed monospecific sera; assay type: binding

SMILES | inhibition of BM40 mAb binding by competing liquid phase antigen [1] | inhibition of anti-M vs anti-A monospecific sera binding [2]
CO[C@H]1OC(C)[C@@H](NC=O)C(O)C1O[C@H]1OC(C)[C@@H](NC=O)C(O[C@H]2OC(C)[C@@H](NC=O)C(O)C2O[C@H](C=O)OC(C)[C@H](C=O)NC=O)C1O (stereo partly drawn) [oxiTSM] | maintained its antibody interaction | –
C[C@H]1O[C@H](O[C@@H]2[C@@H](O[C@@H]3[C@H](O)[C@@H](O[C@H]4[C@@H](O)[C@H](NC=O)[C@@H](C)O[C@@H]4O)O[C@H](C)[C@H]3NC=O)O[C@H](C)[C@@H](NC=O)[C@@H]2O)[C@@H](O)[C@@H](O)[C@@H]1NC=O [TSM antigen, 4,6-dideoxy-4-formamido-α-D-mannopyranosyl-(1-2)-4,6-dideoxy-4-formamido-α-D-mannopyranosyl-(1-3)-4,6-dideoxy-4-formamido-α-D-mannopyranosyl-(1-2)-4,6-dideoxy-4-formamido-α-D-mannopyranose] | inhibit the binding to a greater extent than the equivalent concentration of Y. enterocolitica O:9 OPS and to a similar degree as the B. abortus S99 OPS | preferential inhibition of the anti-M sera
